# Laboratory results published in PubChem BioAssay AID608 (Sanford-Burnham Center for Chemical Genomics, 2007).
# Active and inactive are the calls of the source. How the calls were made is not given here.
# Target: Peptidyl-prolyl cis-trans isomerase FKBP1A (Homo sapiens) (UniProt P62942)
# Experiment: small-molecule binding to FKBP12 – biophysical, NMR detection (AID 608)
# Conditions: purified FKBP12
# Chain of Peptidyl-prolyl cis-trans isomerase FKBP1A (Homo sapiens) (P62942 whole entry, looked up): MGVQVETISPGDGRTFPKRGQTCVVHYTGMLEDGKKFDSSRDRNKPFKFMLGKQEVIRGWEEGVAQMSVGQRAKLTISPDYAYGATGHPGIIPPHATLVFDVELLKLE
row,SMILES,Kd
1,O=C1CSC(=S)N1N1C(=O)C2C3C=CC(C3)C2C1=O (stereo unspecified),> 4 mM (inactive)
2,Cc1ccc(-c2nnn(CC(=O)O)n2)cc1,> 4 mM (inactive)
3,CNC(=S)Nc1ccc(C(=O)O)cc1,> 4 mM (inactive)
4,CN1CCC(N2CCN(C)CC2)CC1,> 4 mM (inactive)
5,COc1ccc(C(=O)NCC(=O)O)cc1,> 4 mM (inactive)
6,CCc1sc(C(=O)NC)cc1Br,> 4 mM (inactive)
7,Nc1cc(=O)[nH]c(SCC(=O)NCc2ccccc2)n1,> 4 mM (inactive)
8,N#Cc1cn(CC(=O)N2CCCC2)c2ccccc12,> 4 mM (inactive)
9,CC(=O)O[C@@H]1C[C@@]2(C)[C@H](c3ccoc3)C[C@H]3O[C@]32[C@]2(C)C(=O)C(O)=C3C(C)(C)C(=O)C=C[C@]3(C)C12 (stereo partly specified),> 4 mM (inactive)
10,O=c1[nH]c(O)c(C=NC2CC2)c(=O)[nH]1,> 4 mM (inactive)
11,C[C@@H]1O[C@@H](O[C@H]2CC[C@]3(C=O)C4CC[C@]5(C)[C@@H](C6=CC(=O)OC6)CC[C@]5(O)C4CC[C@]3(O)C2)[C@H](O)[C@H](O)[C@H]1O (stereo partly specified),> 4 mM (inactive)
12,CCc1c(C(=O)N2CCOCC2)csc1C,> 4 mM (inactive)
13,COC(=O)CC1=Nc2ccccc2NC(=O)C1,> 4 mM (inactive)
14,O=C(O)Cn1cc(C(F)(F)F)ccc1=O,> 4 mM (inactive)
15,COc1c2ccccc2nc2occc12,> 4 mM (inactive)
16,Cc1cc(C)n2nc(C(=O)Nc3cccnc3)nc2n1,> 4 mM (inactive)
17,OC1CCC(C(F)(F)F)CC1 (stereo unspecified),> 4 mM (inactive)
18,CCC1=Nc2ccccc2-c2nnc(SC)nc2O1,> 4 mM (inactive)
19,CN1CCC(NC(=O)c2ccccc2[N+](=O)[O-])CC1,> 4 mM (inactive)
20,CCOC(=O)C1CCN(Cc2ccccc2)CC1=O (stereo unspecified),> 4 mM (inactive)
21,C[C@@H]1CC[C@@]2(OC1)OC1C(O)C3C4CC[C@H]5C[C@H](O[C@@H]6O[C@H](CO)[C@H](O[C@@H]7O[C@H](CO)[C@@H](O)[C@H](O[C@@H]8OC[C@@H](O)[C@H](O)[C@H]8O)[C@H]7O[C@@H]7O[C@H](CO)[C@H](O)[C@H](O[C@@H]8O[C@H](CO)[C@@H](O)[C@H](O)[C@H]8O)[C@H]7O)[C@H](O)[C@H]6O)[C@H](O)C[C@]5(C)C4CC[C@]3(C)C1[C@@H]2C (stereo partly specified),> 4 mM (inactive)
22,O=c1ccc2cc(O[C@@H]3O[C@H](CO)[C@@H](O)[C@H](O)[C@H]3O)c(O)cc2o1,> 4 mM (inactive)
23,O=C(NN=C1CCCC1)c1ccncc1,> 4 mM (inactive)

row,SMILES,Kd
1,Cc1cc(C)n(C/C=C/Cn2nc(C)cc2C)n1,> 4 mM (inactive)
2,CCOC(=O)CN1C(=O)c2ccccc2C1=O,> 4 mM (inactive)
3,O=C(C1CCNCC1)N1CCCCCC1,> 4 mM (inactive)
4,CC(=O)c1sc2nc(N)nn2c1C,> 4 mM (inactive)
5,O=c1[nH]cnc2c1nnn2Cc1ccccc1,> 4 mM (inactive)
6,COc1ccc(/C=C2\NC(=S)N(C)C2=O)cc1O,> 4 mM (inactive)
7,Cc1ccc(C(C)C)cc2c(C)ccc1-2,> 4 mM (inactive)
8,Cn1cnc2c1c(=O)[nH]c(=O)n2C,> 4 mM (inactive)
9,CC12CNCC(C)(CNC1)C2O (stereo unspecified),> 4 mM (inactive)
10,CN(C)N1C(=O)C2C3C=CC(O3)C2C1=O (stereo unspecified),> 4 mM (inactive)
11,CC(C)=CCOc1c2occc2cc2ccc(=O)oc12,> 4 mM (inactive)
12,NCC(=O)c1ccccc1,> 4 mM (inactive)
13,c1ccc(-c2noc(-c3cccnc3)n2)nc1,> 4 mM (inactive)
14,c1ccc(-c2nnc(CNCc3ccco3)o2)cc1,> 4 mM (inactive)
15,Nc1cccc(-c2cnco2)c1,> 4 mM (inactive)
16,COC(=O)c1ccc(Cl)c(NC(C)=O)c1,> 4 mM (inactive)
17,NC(=O)c1ccc(NC(=O)C2CC2)cc1,> 4 mM (inactive)
18,CC(=O)c1c(C)n([O-])c2ccccc2[n+]1=O,> 4 mM (inactive)
19,Cc1cc(N)no1,> 4 mM (inactive)
20,Nc1ccc2c(c1)C(=O)OC2,> 4 mM (inactive)
21,CC(C)CCCC(C)C1CCC2C3=CC[C@H]4C[C@@H](O)CC[C@]4(C)C3CC[C@@]21C (stereo partly specified),> 4 mM (inactive)
22,Cc1cc(NC(=O)c2cccc(S(C)(=O)=O)c2)no1,> 4 mM (inactive)
23,CC(=O)Oc1ccc(-c2nc(-c3cccnc3)no2)cc1,> 4 mM (inactive)

row,SMILES,Kd
1,Cc1nc2ccc(C(=O)N3CCSCC3)cc2s1,> 4 mM (inactive)
2,COc1cc2c(cc1OC)[C@@H]1C(=O)c3ccc(OC)c(CC=C(C)C)c3O[C@@H]1CO2,> 4 mM (inactive)
3,Nc1ncnc2c1ncn2C1O[C@H](COP(=O)(O)O)[C@@H](O)[C@H]1O (stereo partly specified),> 4 mM (inactive)
4,CC(=O)n1nc(-c2cccnc2)nc1N,> 4 mM (inactive)
5,Clc1ccccc1OCc1nc(-c2ccccn2)no1,> 4 mM (inactive)
6,COc1ccc(Cl)c(S(=O)(=O)N2CCCC2)c1,> 4 mM (inactive)
7,C[n+]1cccc(C(=O)[O-])c1,> 4 mM (inactive)
8,O=S1(=O)C=C(Nc2ccccc2)CC1,0.135 mM
9,CSc1nc2nccc(N)n2n1,> 4 mM (inactive)
10,Clc1ncnc2[nH]ncc12,> 4 mM (inactive)
11,O=C(CCc1n[nH]c(=O)[nH]c1=O)NCc1ccccc1,> 4 mM (inactive)
12,CN1CCN(C2CCSC2)CC1 (stereo unspecified),> 4 mM (inactive)
13,COc1ccc(-c2cn[nH]c2N)c(OC)c1,> 4 mM (inactive)
14,C=C1CCC(=O)C(C)CCC2C1CC2(C)C (stereo unspecified),> 4 mM (inactive)
15,COc1cc2c(cc1OC)-c1cc3ccc(OC)c(OC)c3c[n+]1CC2,> 4 mM (inactive)
16,CC(=O)OC1CCC2(C)C(=CC=C3C2CCC2(C)C3CCC2C(C)/C=C/C(C)C(C)C)C1(C)C (stereo unspecified),> 4 mM (inactive)
17,O=c1c(O)cc([C@H]2Oc3cc(O)cc(O)c3C[C@H]2O)cc2c([C@H]3Oc4cc(O)cc(O)c4C[C@H]3O)cc(O)c(O)c12,> 4 mM (inactive)
18,Nc1ccc2c(c1)S(=O)(=O)C=C2,> 4 mM (inactive)
19,COc1ccc2ccc(=O)oc2c1CC=C(C)C,> 4 mM (inactive)
20,O=S1(=O)CCC(NC(=S)N2CCOCC2)C1 (stereo unspecified),0.0474 mM
21,CP(C)(=O)c1cccc(C(=O)O)c1,> 4 mM (inactive)
22,O=C(Nc1cccc2cccnc12)c1cccnc1,> 4 mM (inactive)
23,c1ccc(SCc2nc(-c3cccnc3)no2)cc1,> 4 mM (inactive)

row,SMILES,Kd
1,Cc1nnc2ccc(N3CCCC3)nn12,> 4 mM (inactive)
2,C[C@H]1[C@H](C)CC[C@]2(C(=O)O)CC[C@]3(C)C(=CCC4[C@@]5(C)C[C@@H](O)[C@H](O)[C@@](C)(CO)C5[C@H](O)C[C@]43C)[C@H]12 (stereo partly specified),> 4 mM (inactive)
3,Nc1ncnc(NCCO)c1[N+](=O)[O-],> 4 mM (inactive)
4,Nc1c(/C=C2\C=Nc3ccccc32)c(=O)nc2scnn12,> 4 mM (inactive)
5,CNC(=O)C1CC(=O)N(c2ccc(O)cc2)C1 (stereo unspecified),> 4 mM (inactive)
6,CNC(=O)C(=O)NCc1ccc(C)cc1,> 4 mM (inactive)
7,Nc1ccc(S(=O)(=O)Nc2ccc(F)cc2F)cc1,> 4 mM (inactive)
8,O=[n+]1cc(C2=CC=CCC2)n([O-])c2c1CCCCC2,> 4 mM (inactive)
9,CC1CCC2(OC1)OC1CC3C4CCC5C[C@@H](O)CCC5(C)C4=CCC3(C)C1[C@@H]2C (stereo partly specified),> 4 mM (inactive)
10,CCOC(=O)CC1Sc2ccccc2NC1=S (stereo unspecified),> 4 mM (inactive)
11,COc1ccc(CC(=O)c2ccc(O)cc2O)cc1,> 4 mM (inactive)
12,COC(=O)c1noc(C)c1C(C)=O,> 4 mM (inactive)
13,COc1ccc(C)cc1S(=O)(=O)NC1CCCC1,> 4 mM (inactive)
14,CC1=C2C(=CO[C@H](C)[C@H]2C)C(=O)C(C(=O)O)=C1O,> 4 mM (inactive)
15,C(=N\n1cnnc1)/c1cccs1,> 4 mM (inactive)
16,CC(=O)Nc1nc(C)c(C(C)=O)s1,> 4 mM (inactive)
17,O=C(O)c1ccc(-c2ccccn2)s1,> 4 mM (inactive)
18,COC1=CC(=O)C[C@@H](C)[C@]12Oc1c(Cl)c(OC)cc(OC)c1C2=O,> 4 mM (inactive)
19,COC1CC(O[C@H]2CC[C@]3(C=O)C4CC[C@]5(C)C(C6=CC(=O)OC6)CC[C@]5(O)C4CC[C@]3(O)C2)OC(C)C1O (stereo partly specified),> 4 mM (inactive)
20,N#Cc1nc(N2CCCCC2)nc(N2CCOCC2)n1,> 4 mM (inactive)
21,COc1ccc([C@H]2COc3c(ccc(O)c3OC)C2)c(OC)c1O,> 4 mM (inactive)
22,CN1CCN(C(=O)c2cc(-c3ccccc3)on2)CC1,> 4 mM (inactive)
23,CC(C)NS(=O)(=O)c1ccc(N)cc1,> 4 mM (inactive)

row,SMILES,Kd
1,Cc1cc(C(F)(F)F)n2nc(C(=O)O)c(Cl)c2n1,> 4 mM (inactive)
2,CCN1CC2(C)CC[C@H](OC)[C@]34C2[C@H](O)C2(OCO[C@@]25C[C@H](OC)[C@H]2C[C@]3(O)C5[C@H]2O)C14,> 4 mM (inactive)
3,NS(=O)(=O)c1ccc(F)cc1,> 4 mM (inactive)
4,Cc1nnc(NCc2cccnc2)[nH]c1=O,> 4 mM (inactive)
5,NC(=O)CC(=O)NC12CC3CC(CC(C3)C1)C2,> 4 mM (inactive)
6,Cc1cc(C)c2ccc[n+]([O-])c2c1O,> 4 mM (inactive)
7,O=[N+]([O-])c1cccc2c1nnn2C(CO)OCCO (stereo unspecified),> 4 mM (inactive)
8,COc1ccc(/C=C2/NC(=S)NC2=O)cc1,> 4 mM (inactive)
9,O=S1(=O)CCC(Nc2ccccc2)C1 (stereo unspecified),> 4 mM (inactive)
10,Cc1ccc(C(O)c2nccn2C)o1 (stereo unspecified),> 4 mM (inactive)
11,COc1ccc(-c2cc(=O)c3c(OC)c(OC)c(OC)c(OC)c3o2)cc1,> 4 mM (inactive)
12,Nc1ccc2c(c1)N1CCN=C1S2,> 4 mM (inactive)
13,O=c1c(-c2ccc(O)cc2)coc2cc(O)ccc12,> 4 mM (inactive)
14,NC(=O)CSc1ncnc2ccccc12,> 4 mM (inactive)
15,Cc1cc(N2C(=O)CCC2=O)n(-c2ccccc2)n1,> 4 mM (inactive)
16,Cc1occc1C(=O)Nc1nnc(C2CCCCC2)s1,> 4 mM (inactive)
17,Cc1nc2ccccc2c2c1C(=O)N(N)C2=O,> 4 mM (inactive)
18,CC1=CCCC2C1(C)CCC(C)C2(C)CC/C(C)=C/C[n+]1cn(C)c2c(N)ncnc21 (stereo unspecified),> 4 mM (inactive)
19,CC(=O)Nc1cnn(-c2ccccc2)c(=O)c1Cl,> 4 mM (inactive)
